Converted amounts (≈) assume the structure as drawn.
Key:
[1] = pharmacokinetic behavior in baboons, 20 mg/kg (Tables 5 and 7); type: in vivo; details: for Plasma concentration at 24 h / Plasma concentration at 48 h / Cmax / half-life / AUC(0-inf) / dose excreted at 6 h: 20 mg/kg (Table 7); for Cmax / half-life / AUC(0-inf) / concentration at 0.08 h / concentration at 0.16 h / concentration at 0.25 h / concentration at 0.33 h / concentration at 0.5 h / concentration at 0.75 h / concentration at 1 h / concentration at 1.5 h / concentration at 2 h / concentration at 3 h / concentration at 4 h / concentration at 5 h / concentration at 6 h / concentration at 24 h / concentration at 48 h / dose excreted at 6 h: baboon; for Cmax / half-life / AUC(0-inf) / concentration at 0.08 h / concentration at 0.16 h / concentration at 0.25 h / concentration at 0.33 h / concentration at 0.5 h / concentration at 0.75 h / concentration at 1 h / concentration at 1.5 h / concentration at 2 h / concentration at 3 h / concentration at 4 h / concentration at 5 h / concentration at 6 h / concentration at 24 h / concentration at 48 h: plasma; for Cmax: read-out: Maximum plasma concentration; for half-life: read-out: t1/2 β (converted); for AUC(0-inf): trapezium method, read-out: AUC 0-.infin.; for concentration at 0.08 h / concentration at 0.16 h / concentration at 0.25 h / concentration at 0.33 h / concentration at 0.5 h / concentration at 0.75 h / concentration at 1 h / concentration at 1.5 h / concentration at 2 h / concentration at 3 h / concentration at 4 h / concentration at 5 h / concentration at 6 h / concentration at 24 h / concentration at 48 h: 20 mg/kg; for dose excreted at 6 h: urine, read-out: Excretion in urine at 6 h
Description: (§1) Furthermore, the pharmacokinetic behavior of the products according to the invention was studied in baboons after administration at a dose of 20 mg/kg by intramuscular injection or intravenous injection.
(§2) Blood samples taken at various times after administration are used to determine the plasma concentration of the product studied by microbiological assay.
(§3) It is thus possible to construct the curve showing the plasma concentration as a function of time, and to determine different pharmacokinetic parameters of the compound studied:
(§4) the elimination half-life (t1/2 β) is calculated by the formula [formula] in which β represents the elimination gradient or slope;
(§5) the area under the curve (AUC) is determined by the trapezium method.
(§6) The plasma concentrations obtained with various products of the invention are collated in Tables 4 and 5. They are expressed in μg/ml.

[2] = protein binding by comparing two standard scales in baboon plasma and phosphate buffer; type: in vitro ADME; details: baboon plasma vs phosphate buffer (pH 7, 0.03M)
Text: Furthermore, the protein binding is obtained by comparing two standard scales, one being prepared in baboon plasma and the other in phosphate buffer (pH 7, 0.03M).

[3] = pharmacokinetic behavior in baboons, 20 mg/kg (Tables 4 and 6); type: in vivo; details: baboon; for Tmax / Cmax / half-life / AUC(0-t) at 6 h / concentration at 6 h / concentration at 10 min / concentration at 20 min / concentration at 0.5 h / concentration at 0.75 h / concentration at 1 h / concentration at 1.5 h / concentration at 2 h / concentration at 3 h / concentration at 4 h / concentration at 5 h / concentration at 5.5 h: plasma; for Cmax: read-out: Max plasma concentration; for half-life: read-out: t1/2 β; for AUC(0-t) at 6 h: trapezium method; for concentration at 6 h / concentration at 10 min / concentration at 20 min / concentration at 0.5 h / concentration at 0.75 h / concentration at 1 h / concentration at 1.5 h / concentration at 2 h / concentration at 3 h / concentration at 4 h / concentration at 5 h / concentration at 5.5 h / dose excreted at 6 h: 20 mg/kg; for concentration at 0.5 h: 30 minutes; for concentration at 0.75 h: 45 minutes; for concentration at 1 h: 60 minutes; for concentration at 1.5 h: 90 minutes; for concentration at 2 h: 120 minutes; for concentration at 3 h: 180 minutes; for concentration at 4 h: 240 minutes; for concentration at 5 h: 300 minutes; for concentration at 5.5 h: 330 minutes; for dose excreted at 6 h: urine, 6 h (Table 6), read-out: Excretion in the urine
Description: as §1, §2, §3, §4, §5, §6

[4] = tested on: Proteus vulgaris GN 76/C-1; experiment: bacteriostatic action in vitro by the dilution method (MIC); type: cell-based; details: GN76, read-out: minimum inhibitory concentrations (MIC)
Description: (§7) The bacteriostatic action was determined in vitro by the dilution method. The study was carried out on both Gram-positive strains and Gram-negative strains.
(§8) The results for various products according to the invention, expressed as minimum inhibitory concentrations (MIC - μg/ml), are collated in Table 3.

[5] = tested on: Staph. aureus Smith; experiment: as above; type: cell-based; details: Staphylococcus aureus, read-out: minimum inhibitory concentrations (MIC)
Description: as §7, §8

[6] = tested on: Escherichia coli SOL RL 90; experiment: as above; type: cell-based; details: SOLRL90, read-out: minimum inhibitory concentrations (MIC)
Description: as §7, §8

[7] = tested on: Klebsiella pneumoniae R30; experiment: as above; type: cell-based; details: read-out: minimum inhibitory concentrations (MIC)
Description: as §7, §8

[8] = tested on: Providencia 155; experiment: as above; type: cell-based; details: read-out: minimum inhibitory concentrations (MIC)
Description: as §7, §8

[9] = tested on: Escherichia coli C1/Col E1::Tn3; experiment: as above; type: cell-based; details: read-out: minimum inhibitory concentrations (MIC)
Description: as §7, §8

[10] = tested on: Pseudomonas aeruginosa NCTC 8203; experiment: as above; type: cell-based; details: NCTC8203, read-out: minimum inhibitory concentrations (MIC)
Description: as §7, §8

[11] = 20 mg/kg (Table 6), read-out: Plasma concentration at 6 h
[12] = 360 minutes, read-out: plasma concentration

CC(C)(ON=C(C(=O)NC1C(=O)N2C(C(=O)O)=C(COC(=O)c3ccc(NS(=O)(=O)CCN)cc3)CSC12)c1csc(N)n1)C(=O)O (stereo not shown) [C, reference compound]
Plasma concentration at 24 h [1]: 7.7 µg/mL
Plasma concentration at 48 h [1]: 0.6 µg/mL
Cmax [1]: 233 µg/mL
half-life [1]: 6.3 h
AUC(0-inf) [1]: 1210 µg·h/mL
concentration at 0.08 h [1]: 233 µg/mL
concentration at 0.16 h [1]: 213 µg/mL
concentration at 0.25 h [1]: 190 µg/mL
concentration at 0.33 h [1]: 170 µg/mL
concentration at 0.5 h [1]: 124 µg/mL
concentration at 0.75 h [1]: 121 µg/mL
concentration at 1 h [1]: 120 µg/mL
concentration at 1.5 h [1]: 112 µg/mL
concentration at 2 h [1]: 98.4 µg/mL
concentration at 3 h [1]: 72.9 µg/mL
concentration at 4 h [1]: 68.7 µg/mL
concentration at 5 h [1]: 62.1 µg/mL
concentration at 6 h [1]: 54.4 µg/mL
concentration at 24 h ([1]; 24 hours): 7.7 µg/mL
concentration at 48 h ([1]; 48 hours): 0.6 µg/mL
dose excreted at 6 h [1]: 18%

CC(C)(ON=C(C(=O)NC1C(=O)N2C(C(=O)O)=C(COC(=O)c3ccc(NC(=O)CN)cc3)CSC12)c1csc(N)n1)C(=O)O (stereo not shown) [Product A, reference compound]
fraction unbound [2]: 0.55
Tmax ([3]; 20 mg/kg (Table 6)): 0.75 h
Cmax ([3]; 20 mg/kg (Table 6)): 69.5 µg/mL
half-life ([3]; 20 mg/kg (Table 6)): 3.25 h
AUC(0-t) at 6 h ([3]; 20 mg/kg (Table 6)): 284 µg·h/mL
concentration at 6 h [3, 11]: 17.3 µg/mL
concentration at 10 min [3]: 20.8 µg/mL
concentration at 20 min [3]: 36.8 µg/mL
concentration at 0.5 h [3]: 44.4 µg/mL
concentration at 0.75 h [3]: 59.3 µg/mL
concentration at 1 h [3]: 60 µg/mL
concentration at 1.5 h [3]: 55.5 µg/mL
concentration at 2 h [3]: 53.3 µg/mL
concentration at 3 h [3]: 40 µg/mL
concentration at 4 h [3]: 36.2 µg/mL
concentration at 5 h [3]: 27.2 µg/mL
concentration at 5.5 h [3]: 23.7 µg/mL
concentration at 6 h [3, 12]: 17.3 µg/mL
dose excreted at 6 h [3]: 23%

CC(C)(ON=C(C(=O)NC1C(=O)N2C(C(=O)O)=C(COC(=O)c3ccc(NC(=O)CCN)cc3)CSC12)c1csc(N)n1)C(=O)O (stereo not shown) [Product B, reference compound]
fraction unbound [2]: 0.52
Tmax ([3]; 20 mg/kg (Table 6)): 1.5 h
Cmax ([3]; 20 mg/kg (Table 6)): 24.1 µg/mL
half-life ([3]; 20 mg/kg (Table 6)): 1.65 h
AUC(0-t) at 6 h ([3]; 20 mg/kg (Table 6)): 87.9 µg·h/mL
concentration at 6 h [3, 11]: 4.8 µg/mL
concentration at 10 min [3]: 8.5 µg/mL
concentration at 20 min [3]: 16.4 µg/mL
concentration at 0.5 h [3]: 16.9 µg/mL
concentration at 0.75 h [3]: 17.6 µg/mL
concentration at 1 h [3]: 20.7 µg/mL
concentration at 1.5 h [3]: 24.1 µg/mL
concentration at 2 h [3]: 20.7 µg/mL
concentration at 3 h [3]: 17.6 µg/mL
concentration at 4 h [3]: 12.5 µg/mL
concentration at 5 h [3]: 8.3 µg/mL
concentration at 5.5 h [3]: 6.8 µg/mL
concentration at 6 h [3, 12]: 4.8 µg/mL
dose excreted at 6 h [3]: 18%

CO/N=C(\C(=O)NC1C(=O)N2C(C(=O)O)=C(COC(=O)c3ccc(NC(=O)CN)c(O)c3)CSC12)c1csc(N)n1 (stereo not shown) [SR 43852]
MIC [4]: 16 µg/mL (≈ 26.4 µM)
MIC [5]: 0.25 µg/mL (≈ 0.413 µM)
MIC [6]: 0.25 µg/mL (≈ 0.413 µM)
MIC [7]: 4 µg/mL (≈ 6.6 µM)
MIC [8]: 2 µg/mL (≈ 3.3 µM)
MIC [9]: 0.06 µg/mL (≈ 0.0991 µM)
MIC [10]: 2 µg/mL (≈ 3.3 µM)

CO/N=C(\C(=O)NC1C(=O)N2C(C(=O)O)=C(COC(=O)c3ccc(NC(=O)CCN)c(O)c3)CSC12)c1csc(N)n1 (stereo not shown) [SR 43853]
MIC [4]: 16 µg/mL (≈ 25.8 µM)
MIC [5]: 0.25 µg/mL (≈ 0.403 µM)
MIC [6]: 0.25 µg/mL (≈ 0.403 µM)
MIC [7]: 4 µg/mL (≈ 6.46 µM)
MIC [8]: 1 µg/mL (≈ 1.61 µM)
MIC [9]: 0.06 µg/mL (≈ 0.0968 µM)
MIC [10]: 2 µg/mL (≈ 3.23 µM)

CO/N=C(\C(=O)NC1C(=O)N2C(C(=O)O)=C(COC(=O)c3ccc(NC(=O)C(N)CCN)c(O)c3)CSC12)c1csc(N)n1 (stereo not shown) [SR 44218]
MIC [4]: 16 µg/mL (≈ 24.7 µM)
MIC [5]: 0.5 µg/mL (≈ 0.771 µM)
MIC [6]: 0.5 µg/mL (≈ 0.771 µM)
MIC [7]: 8 µg/mL (≈ 12.3 µM)
MIC [8]: 2 µg/mL (≈ 3.08 µM)
MIC [9]: 0.25 µg/mL (≈ 0.385 µM)
MIC [10]: 4 µg/mL (≈ 6.17 µM)

CO/N=C(\C(=O)NC1C(=O)N2C(C(=O)O)=C(COC(=O)c3ccc(NC(=O)[C@@H](N)CCCN)c(O)c3)CSC12)c1csc(N)n1 (stereo partly shown) [SR 44219]
MIC [4]: 16 µg/mL (≈ 24.1 µM)
MIC [5]: 0.5 µg/mL (≈ 0.754 µM)
MIC [6]: 0.12 µg/mL (≈ 0.181 µM)
MIC [7]: 4 µg/mL (≈ 6.04 µM)
MIC [8]: 1 µg/mL (≈ 1.51 µM)
MIC [9]: 0.12 µg/mL (≈ 0.181 µM)
MIC [10]: 1 µg/mL (≈ 1.51 µM)

CO/N=C(\C(=O)NC1C(=O)N2C(C(=O)O)=C(COC(=O)c3ccc(NS(=O)(=O)CCN)c(O)c3)CSC12)c1csc(N)n1 (stereo not drawn) [SR 44337, 7-[2-(2-Aminothiazol-4-yl)-2-methoxyiminoacetamido]-3-[[4-(2-aminoethylsulfonamido)-3-hydroxybenzoyl]oxymethyl]-3-cephem-4-carboxylic acid bis-trifluoroacetate, syn isomer]
MIC [4]: 1 µg/mL (≈ 1.53 µM)
MIC [5]: 0.25 µg/mL (≈ 0.381 µM)
MIC [6]: 0.5 µg/mL (≈ 0.763 µM)
MIC [7]: 4 µg/mL (≈ 6.1 µM)
MIC [8]: 1 µg/mL (≈ 1.53 µM)
MIC [9]: 0.06 µg/mL (≈ 0.0915 µM)
MIC [10]: 2 µg/mL (≈ 3.05 µM)
increase in area under the curve relative to reference product C [1]: 2.7 fold
Plasma concentration at 24 h [1]: 39.0 µg/mL
Plasma concentration at 48 h [1]: 14.4 µg/mL
plasma concentration at 24 hours, times higher than reference product C ([1]; 24 hours): 5 times
plasma concentration at 48 hours, times higher than reference product C ([1]; 48 hours): 24 times
Cmax [1]: 266 µg/mL
half-life [1]: 13.9 h
AUC(0-inf) [1]: 3320 µg·h/mL
concentration at 0.08 h [1]: 266 µg/mL
concentration at 0.16 h [1]: 251 µg/mL
concentration at 0.25 h [1]: 238 µg/mL
concentration at 0.33 h [1]: 206 µg/mL
concentration at 0.5 h [1]: 194 µg/mL
concentration at 0.75 h [1]: 190 µg/mL
concentration at 1 h [1]: 182 µg/mL
concentration at 1.5 h [1]: 164 µg/mL
concentration at 2 h [1]: 153 µg/mL
concentration at 3 h [1]: 152 µg/mL
concentration at 4 h [1]: 147 µg/mL
concentration at 5 h [1]: 141 µg/mL
concentration at 6 h [1]: 120 µg/mL
concentration at 24 h ([1]; 24 hours): 39 µg/mL
concentration at 48 h ([1]; 48 hours): 14.4 µg/mL
dose excreted at 6 h [1]: 14%

Source: patent publication US5079241A, “Cephalosporin derivatives and pharmaceutical compositions in which they are present” (Sanofi, priority 1987, dated 1992)
